Measured values: publication PMC5011342, “A high throughput drug screening assay to identify compounds that promote oligodendrocyte differentiation using acutely dissociated and purified oligodendrocyte precursor cells” (BMC Research Notes, 2016)
Like-named read-outs stand apart in the source and are kept apart here.

What was measured:
[1] = tested on: acutely dissociated and purified rat OPCs; assay: Acute OL differentiation assay (MBP expression/cell, immunofluorescent image quantification); type: cell-based; settings: sheet "All OLga data"; for activation at 2 µM / activation at 10 µM / activation at 0.4 µM: Rattus norvegicus
Method in brief: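 This acute differentiation assay used purified rat OPCs from postnatal day 6–7 pups, seeded into PDL/laminin-coated 96-well plates in differentiation medium lacking PDGF and FGF. Compounds were applied in quadruplicate after a 1–2 h preincubation at 37 °C, 10 % CO2, with 0.1 % DMSO negative and 40 ng/ml T3 positive controls in eight wells. After fixation on DIV4, anti-MBP immunofluorescence images yielded MBP expression/cell.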

expanded OPCs = assay: cells; settings: for viability at 0.1 µM / viability at 1 µM / viability at 10 µM: Rattus norvegicus, 72 h
Method in brief: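 Toxicity screen: compounds added at 0.1, 1 and 10 µM to PDGF-AA-expanded OPCs in 96-well plates, 3-day incubation at 37 °C, 10% CO2, then alamarBlue 1:10 for 4 h with fluorescence readout. Results set screening doses of 10/2, 2/0.4 or 0.4/0.08 µM.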

[2] = test compound at 2 uM, MBP expression relative to quetiapine, NCC library screen, read-out: 2 uM (% Quet)
[3] = test compound at 10 uM, MBP expression relative to quetiapine, NCC library screen, read-out: 10 uM (% Quet)
[4] = alamarBlue viability of expanded OPCs, compound at 0.1 µM, relative to DMSO control
[5] = alamarBlue viability of expanded OPCs, compound at 1 µM, relative to DMSO control
[6] = alamarBlue viability of expanded OPCs, compound at 10 µM, relative to DMSO control
[7] = test compound at 2 uM, NCC library screen, relative to quetiapine, read-out: 2 uM (% Quet)
[8] = test compound at 10 uM, NCC library screen, relative to quetiapine, read-out: 10 uM (% Quet)
[9] = 0.4 uM test compound, relative to quetiapine, read-out: OL differentiation, 0.4 uM (% Quet)
[10] = 2 uM test compound, relative to quetiapine, read-out: OL differentiation, 2 uM (% Quet)
[11] = read-out: 0.1 µM (% DMSO), alamarBlue viability of expanded OPCs, compound at 0.1 µM, sheet All Tox data
[12] = read-out: 1 µM (% DMSO), alamarBlue viability of expanded OPCs, compound at 1 µM, sheet All Tox data
[13] = read-out: 10 µM (% DMSO), alamarBlue viability of expanded OPCs, compound at 10 µM, sheet All Tox data
[14] = 10 uM test compound, relative to quetiapine, read-out: OL differentiation, 10 uM (% Quet)
[15] = test compound at 0.4 uM, NCC library screen, relative to quetiapine, read-out: 0.4 uM (% Quet)
[16] = read-out: 0.1 µM (% DMSO), alamarBlue viability, NCC library compound at 0.1 µM, sheet "All Tox data"
[17] = read-out: 1 µM (% DMSO), alamarBlue viability, NCC library compound at 1 µM, sheet "All Tox data"
[18] = read-out: 10 µM (% DMSO), alamarBlue viability, NCC library compound at 10 µM, sheet "All Tox data"

Row | Compound | activation at 2 µM [1, 2] | activation at 10 µM [1, 3] | 0.1 µM (% DMSO) (expanded OPCs; [4]) | 1 µM (% DMSO) (expanded OPCs; [5]) | 10 µM (% DMSO) (expanded OPCs; [6]) | activation at 2 µM [1, 10] | viability at 0.1 µM (expanded OPCs; [11]) | viability at 1 µM (expanded OPCs; [12]) | viability at 10 µM (expanded OPCs; [13]) | activation at 10 µM [1, 14] | other results
1 | CC(=O)/N=c1/sc(S(N)(=O)=O)nn1C [Methazolamide] | -29% | -40% | 90.9 % DMSO | 92.5 % DMSO | 88.3 % DMSO |  |  |  |  |  | 
2 | Cn1cc[nH]c1=S [Methimazole] | -0.16% | -20.4% | 88.3 % DMSO | 90.9 % DMSO | 85.4 % DMSO |  |  |  |  |  | 
3 | COc1ccccc1OCC(O)COC(N)=O (centres unmarked) [Methocarbamol] |  |  | 89.9 % DMSO | 92.3 % DMSO | 88.1 % DMSO |  |  |  |  |  | activation at 2 µM [1, 7]: 2.8%; activation at 10 µM [1, 8]: -3.7%
4 | CN(Cc1cnc2nc(N)nc(N)c2n1)c1ccc(C(=O)N[C@@H](CCC(=O)O)C(=O)O)cc1 [Methotrexate] |  |  |  |  |  | 4.9% | 77.9% | 68.5% | 52.8% |  | activation at 0.4 µM [1, 9]: -11%
5 | COc1c2occc2cc2ccc(=O)oc12 [Methoxsalen] | -13.9% | -33.3% | 88.8 % DMSO | 90.5 % DMSO | 85.4 % DMSO |  |  |  |  |  | 
6 | C[C@](N)(Cc1ccc(O)c(O)c1)C(=O)O [Methyldopa] |  |  | 100.4 % DMSO | 86.9 % DMSO | 63.4 % DMSO |  |  |  |  |  | activation at 2 µM [1, 7]: -37.7%; activation at 10 µM [1, 8]: -93.8%
7 | CC(=O)OCC(=O)[C@@]1(O)CC[C@H]2[C@@H]3C[C@H](C)C4=CC(=O)C=C[C@]4(C)[C@H]3[C@@H](O)C[C@@]21C [Methylprednisolone acetate] | 3.6% | -59.5% | 106.9 % DMSO | 104.6 % DMSO | 95.3 % DMSO |  |  |  |  |  | 
8 | C[C@H]1C[C@@H]2[C@H]([C@@H](O)C[C@@]3(C)[C@H]2CC[C@]3(O)C(=O)CO)[C@@]2(C)C=CC(=O)C=C12 [Methylprednisolone] | -2.6% | -32.2% | 115.7 % DMSO | 111.5 % DMSO | 102.3 % DMSO |  |  |  |  |  | 
9 | C[C@]12CCC(=O)C=C1CC[C@@H]1[C@@H]2CC[C@@]2(C)[C@H]1CC[C@]2(C)O [Methyltestosterone] |  |  |  |  |  | -8.1% | 103% | 112% | 102% | -36.5% | 
10 | CCN(CC)CCNC(=O)c1cc(Cl)c(N)cc1OC [Metoclopramide] |  |  | 108.4 % DMSO | 109.6 % DMSO | 116.8 % DMSO |  |  |  |  |  | activation at 2 µM [1, 7]: -21.4%; activation at 10 µM [1, 8]: -26.2%
11 | Cc1ncc([N+](=O)[O-])n1CCO [Metronidazole] |  |  |  |  |  | 0.09% | 84.6% | 88.7% | 79.3% | 24.8% | 
12 | CC(C)(C(=O)c1cccnc1)c1cccnc1 [Metyrapone] | 9.9% | -15% | 90.5 % DMSO | 94.0 % DMSO | 93.4 % DMSO |  |  |  |  |  | 
13 | CC[C@H](C)C(=O)O[C@H]1CCC=C2C=C[C@H](C)[C@H](CC[C@@H]3C[C@@H](O)CC(=O)O3)[C@H]21 [Mevistatin] |  |  |  |  |  |  |  |  |  |  | 0.4 uM (% Quet) ([1]; test compound at 0.4 uM, NCC library screen, relative to quetiapine): -87.3 % Quet; 2 uM (% Quet) ([1]; test compound at 2 uM, NCC library screen, relative to quetiapine): -111.9 % Quet; 0.1 µM (% DMSO) (expanded OPCs; alamarBlue viability, NCC library compound at 0.1 µM, sheet "All Tox data"): 135.8 % DMSO; 1 µM (% DMSO) (expanded OPCs; alamarBlue viability, NCC library compound at 1 µM, sheet "All Tox data"): 96.3 % DMSO; 10 µM (% DMSO) (expanded OPCs; alamarBlue viability, NCC library compound at 10 µM, sheet "All Tox data"): 54.8 % DMSO
14 | Cc1cccc(C)c1OCC(C)N (centres unmarked) [Mexiletine] | -15.2% | -7.4% | 91.7 % DMSO | 86.5 % DMSO | 72.1 % DMSO |  |  |  |  |  | 
15 | Clc1ccc(COC(Cn2ccnc2)c2ccc(Cl)cc2Cl)c(Cl)c1 (centres unmarked) [Miconazole] |  |  | 91.9 % DMSO | 108.6 % DMSO | 9.2 % DMSO |  |  |  |  |  | activation at 0.4 µM [1, 15]: 43.2%
16 | Cc1ncc2n1-c1ccc(Cl)cc1C(c1ccccc1F)=NC2 [Midazolam] |  |  |  |  |  | -15.2% | 91% | 99.9% | 128% | -81.7% | 
17 | CCC(=O)O[C@@H]1CC(=O)O[C@H](C)C/C=C/C=C/[C@H](O)[C@H](C)C[C@H](CC=O)[C@H](O[C@@H]2O[C@H](C)[C@@H](O[C@H]3C[C@@](C)(O)[C@@H](OC(=O)CC)[C@H](C)O3)[C@H](N(C)C)[C@H]2O)[C@H]1OC [Midecamycin] |  |  |  |  |  | -0.9% | 92.7% | 95.7% | 91.2% | -11.3% | 
18 | COc1ccc(OC)c(C(O)CNC(=O)CN)c1 (centres unmarked) [Midodrine] |  |  | 90.8 % DMSO | 88.9 % DMSO | 89.1 % DMSO |  |  |  |  |  | activation at 2 µM [1, 7]: -2.5%; activation at 10 µM [1, 8]: 6.3%
19 | CC#C[C@]1(O)CC[C@H]2[C@@H]3CCC4=CC(=O)CCC4=C3[C@@H](c3ccc(N(C)C)cc3)C[C@@]21C [Mifepristone] |  |  |  |  |  |  |  |  |  |  | activation at 0.4 µM [1, 15]: -2.7%; activation at 2 µM [1, 7]: -139%; viability at 0.1 µM (expanded OPCs; [16]): 84.5%; viability at 1 µM (expanded OPCs; [17]): 71.3%; viability at 10 µM (expanded OPCs; [18]): 26.4%
20 | OCCN1C[C@H](O)[C@@H](O)[C@H](O)[C@H]1CO [Miglitol] |  |  |  |  |  | 13.5% | 90.6% | 92.6% | 90.3% | -3.3% | 
21 | CCN(CC)C(=O)C1(c2ccccc2)CC1CN (centres unmarked) [Milnacipran] |  |  |  |  |  | -17.2% |  |  |  | -8.5% | viability at 0.1 µM (expanded OPCs; [16]): 88.4%; viability at 1 µM (expanded OPCs; [17]): 85.1%; viability at 10 µM (expanded OPCs; [18]): 71.2%
22 | Cc1[nH]c(=O)c(C#N)cc1-c1ccncc1 [Milrinone] |  |  |  |  |  | 5.1% |  |  |  | -2.1% | viability at 0.1 µM (expanded OPCs; [16]): 87.2%; viability at 1 µM (expanded OPCs; [17]): 85.8%; viability at 10 µM (expanded OPCs; [18]): 79.6%
23 | CN(C)c1ccc(O)c2c1C[C@H]1C[C@H]3[C@H](N(C)C)C(O)=C(C(N)=O)C(=O)[C@@]3(O)C(O)=C1C2=O [Minocycline] |  |  | 90.1 % DMSO | 90.9 % DMSO | 83.5 % DMSO |  |  |  |  |  | activation at 2 µM [1, 7]: 10.9%; activation at 10 µM [1, 8]: -13.3%
24 | Nc1cc(N2CCCCC2)nc(N)[n+]1[O-] [Minoxidil] | 13.4% | -4.2% | 93.0 % DMSO | 102.8 % DMSO | 89.5 % DMSO |  |  |  |  |  | 
25 | CN1CCN2c3ncccc3Cc3ccccc3C2C1 (centres unmarked) [Mirtazapine] |  |  |  |  |  |  |  |  |  |  | activation at 0.4 µM [1, 15]: -26.7%; activation at 2 µM [1, 7]: -35.7%; viability at 0.1 µM (expanded OPCs; [16]): 94.4%; viability at 1 µM (expanded OPCs; [17]): 73%; viability at 10 µM (expanded OPCs; [18]): 60.1%
26 | O=C(NCCN1CCOCC1)c1ccc(Cl)cc1 [Moclobemide] |  |  |  |  |  | 9.8% | 99.2% | 110% | 113% | -9.7% | 
27 | NC(=O)C[S+]([O-])C(c1ccccc1)c1ccccc1 (centres unmarked) [Modafinil] |  |  |  |  |  | 15.5% | 105% | 94.6% | 99.6% | -30.2% | 
28 | CCc1c(C)[nH]c2c1C(=O)C(CN1CCOCC1)CC2 (centres unmarked) [Molindone] | 1.6% | -34.4% | 90.6 % DMSO | 95.4 % DMSO | 105.0 % DMSO |  |  |  |  |  | 
29 | CC(C)(O)c1ccccc1CC[C@@H](SCC1(CC(=O)O)CC1)c1cccc(/C=C/c2ccc3ccc(Cl)cc3n2)c1 [Montelukast] |  |  |  |  |  | -31.7% |  |  |  |  | activation at 0.4 µM [1, 9]: 12.9%; viability at 0.1 µM (expanded OPCs; [16]): 95.5%; viability at 1 µM (expanded OPCs; [17]): 83%; viability at 10 µM (expanded OPCs; [18]): 11%
30 | CCOc1cc(N)c(Cl)cc1C(=O)NCC1CN(Cc2ccc(F)cc2)CCO1 (centres unmarked) [Mosapride] |  |  |  |  |  | -17% | 102% | 104% | 130% | 4.4% | 
